From patent EP1023836A1, “Compositions and methods for inhibiting the growth of fungi” (UNILEVER N.V., priority 1999, dated 2000)

Assays:
Type in all cases: cell-based
[1] = system: Saccharomyces cerevisiae wild type strain SU-50; test: Growth curves / growth inhibition of yeast strain SU-50; conditions: for effect on growth: comparative sugar 25 mM with 25 µM MB21, strain SU50, 100 cells per ml, versus reference (no sugar, no MMAS) and MB21 alone (Fig. 5a)
Protocol: (§1) For examples 2, and 4-9 grow-curves were recorded at 25°C using a microbiology growth reader (Bioscreen C, ex Labsystems). For example 3, growth curve was determined as turbidity, measured by hand at a wave length of 660 nm (OD 660).
(§2) • a) Saccharomyces cerevisiae strain SU52-pUR 5801 was grown in YNB and YEPD media, at 30°C with shaking at 225 rpm in an orbital incubator until a OD (660 nm) between 5 and 6 was reached. In parallel experiments several concentrations of β-gentiobiose or pustulan fragments were included in the media. After cultivation, the media were separated from the cells by centrifugation (10.000 x g for 15 mm at 4°C). The media were then filtered using 0.22 µM filters. Secretion of α-galactosidase-CWP2p was assessed by measuring α-galactosidase enzyme activity in the media (see further on). • b) Growth curves were obtained with the strain SU-50. The cells (about 10 per ml) were cultured in YEPD at 25°C in the presence or absence of β-gentiobiose or pustulan fragments and MB-21, by using a 24 well plate at room temperature with continuous shaking on a micro-titre plate shaker (mark 4) or a microbiology growth reader (Bioscreen C).
(§3) Three YEPD media were prepared, one without MB21, the other YEPD media contained 10 µM MB21 and 20 µM MB21, respectively. To these media β-gentiobiose was added in concentrations of 0, 50, 100 and 200 mM. The yeast strain SU50 was inoculated in these media in a concentration of 10 cells per ml, and cultivated in a 24 well plate at 25°C. Samples were taken from a 24 well plate at regular time intervals, diluted sixty times with distilled water and measured at 660 nm to construct the growth curves. […] However, if the sub-lethal concentrations of MB21 and β-gentiobiose are combined, a clear reduction in growth potential of SU50 (10 cells per ml) was observed.
This example illustrates a relationship between the length of the β-(1,6)-glucan fragments and their effectiveness in competition. When the same concentration of MB21 (20 µM) was used [about 50 cells per ml] was used, a glucan fragment was obtained from pustulan with an average MW of 686, which was at least hundred times as effective as β-gentiobiose, as shown in Fig. 4.
(§4) In this example, three strains are grown in various media in the fashion of example 3, with the exception of being inoculated in the media in a concentration of 100 cells per ml. The sugars used are all comparatives: laminaribiose (β-1,3)-linked D-glucose), sucrose (having a 1,2 link), and sorbitol.
In this example, strain SU 50 was grown three media (see table 2) in the fashion of example 3, with the exception of being inoculated in the media in a concentration of 100 cells per ml.

[2] = system: Saccharomyces cerevisiae strain SU52-pUR5801; test: Cell wall protein release test (secretion of α-galactosidase-CWP2p fusion protein, α-galactosidase activity in the medium); conditions: β-gentiobiose 10, 50 and 100 mM in YEPD with 5% galactose, 30 °C, 18 hours; linear up to 100 mM (Fig. 1)
Protocol: as §2
α-Galactosidase activity was determined at 37°C using p-nitrophenyl α-D-galactopyranoside (PNPG) as substrate in 0.1 M potassium acetate buffer, pH 5.0. […] The extinction of the liberated p-nitrophenolate was recorded at 405 nm.
β-Gentiobiose was dissolved in YEPD media supplemented with 5% galactose, in concentrations of 10, 50 and 100 mM respectively. […] The enzyme activity of the fusion protein CWP2-α-galactosidase was measured as described in the α-galactosidase assay. […]

[3] = system: Zygosaccharomyces bailii ZB (NCYC 563); test: Growth curves / growth inhibition of yeast strain ZB; conditions: comparative sugar 200 mM with 6 µM MB21, strain ZB, 100 cells per ml; versus reference and MB21 alone (Fig. 5b)
Protocol: as §1, §3, §4
In this example, strain ZB was grown three media (see table 3) in the fashion of example 3, with the exception of being inoculated in the media in a concentration of 100 cells per ml.

[4] = system: Zygosaccharomyces bailii G1; test: Growth curves / growth inhibition of yeast strain G1; conditions: comparative sugar 200 mM with 6 µM MB21, strain G1, 100 cells per ml; versus reference and MB21 alone (Fig. 5c)
Protocol: as §1, §3, §4
In this example, strain G1 was grown three media (see table 4) in the fashion of example 3, with the exception of being inoculated in the media in a concentration of 100 cells per ml. […]

| Structure (SMILES) | growth of SU-50 ([1]; β-gentiobiose as such (0, 50, 100, 200 mM), no MB21, 10 cells per ml, 25°C, OD 660 (Fig. 3)) | release of the fusion protein α-galactosidase-CW2p from the cell wall [2] | effect on growth [1] | effect on growth [3] | effect on growth [4] |
| --- | --- | --- | --- | --- | --- |
| OC[C@H]1O[C@@H](OC[C@H]2O[C@@H](O)[C@H](O)[C@@H](O)[C@@H]2O)[C@H](O)[C@@H](O)[C@@H]1O [β-Gentiobiose, 6-O-β-D-glucopyranosyl-β-D-glucose] | no influence | concentration dependent |  |  |  |
| OC[C@H]1O[C@@H](O[C@H]2[C@H](O)[C@@H](CO)OC(O)[C@@H]2O)[C@H](O)[C@@H](O)[C@@H]1O (stereo partly drawn) [laminaribiose] |  |  | stimulating effect |  |  |
| OC[C@H]1O[C@@](CO)(O[C@H]2O[C@H](CO)[C@@H](O)[C@H](O)[C@H]2O)[C@@H](O)[C@@H]1O [sucrose] |  |  | stimulating effect | stimulating effect | stimulating effect |
| OC[C@@H](O)[C@@H](O)[C@H](O)[C@@H](O)CO [sorbitol] |  |  | stimulating effect | stimulating effect | stimulating effect |
